Data reported in patent US8809535B2, “Substituted pyridines having herbicidal action” (BASF SE, priority 2010, dated 2014).

How the values were obtained:
Assay in all cases: greenhouse post-emergence herbicidal test
ECHCG = type: in vivo, Echinochloa crus-galli; conditions: application rate 0.177 kg/ha, scale 0 to 100
Text: (§1) The culture containers used were plastic flowerpots containing loamy sand with approximately 3.0% of humus as the substrate. The seeds of the test plants were sown separately for each species.
(§2) For the post-emergence treatment, the test plants were first grown to a height of 3 to 15 cm, depending on the plant habit, and only then treated with the active ingredients which had been suspended or emulsified in water. For this purpose, the test plants were either sown directly and grown in the same containers, or they were first grown separately as seedlings and transplanted into the test containers a few days prior to treatment.
(§3) Depending on the species, the plants were kept at 10-25° C. or 20-35° C. The test period extended over 2 to 4 weeks. During this time, the plants were tended, and their response to the individual treatments was evaluated.
(§4) Evaluation was carried out using a scale from 0 to 100. 100 means no emergence of the plants, or complete destruction of at least the aerial moieties, and 0 means no damage, or normal course of growth. A good herbicidal activity is given at values of at least 70 and a very good herbicidal activity is given at values of at least 85.
(§5) The plants used in the greenhouse experiments belonged to the following species: […]

SETVI = type: in vivo, Setaria viridis; conditions: application rate 0.25 kg/ha, scale 0 to 100
Text: as §1, §2, §3, §4, §5

GALAP = type: in vivo, Galium aparine; conditions: application rate 0.25 kg/ha, scale 0 to 100
Text: as §1, §2, §3, §4, §5

Row | Structure (SMILES) | herbicidal activity against ECHCG (ECHCG) | herbicidal activity against SETVI (SETVI) | herbicidal activity against GALAP (GALAP)
1 | O=c1oc2cccnc2c(O)c1-c1cccc(N2CCOCC2)c1C(F)(F)F [Compound I-26] | very good herbicidal activity (a very good herbicidal activity is given at values of at least 85) | – | –
2 | O=c1oc2cccnc2c(O)c1-c1cc(Cl)cc(N2CCOCC2)c1C(F)(F)F [Compound I-49, 3-[5-chloro-3-morpholino-2-(trifluoromethyl)phenyl]-4-hydroxy-pyrano[3,2-b]pyridin-2-one] | – | very good herbicidal activity (a very good herbicidal activity is given at values of at least 85) | very good herbicidal activity (a very good herbicidal activity is given at values of at least 85)
